In patent US10336702B2, “Pharmaceutically active compounds” (BERGENBIO ASA, priority 2015, dated 2019) one finds IC50 data, which are given here for twelve molecules.

Assay [1] addresses T1, p-Akt3 in WM115 cells (Homo sapiens, UniProt Q9Y243).
T1 construct: SureFire assays to detect cellular p-Akt1, p-Akt2 and p-Akt3 levels in WM115 cells (Akt2/3) and LNCaP cells (Akt1); endogenous in cells; host or cells: WM115 (ECACC 91061232), insulin-stimulated
Description: Phospho-Akt cellular SureFire assay, p-Akt3 in WM115 cells. Format: cell-based. Conditions: insulin stimulated, read-out: Biological Assay 2 IC50 (nM) Akt3 WM115. The method in brief: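 pThr308-Akt3 in lysates was quantified by bead-proximity SureFire detection, pairing a phospho-specific antibody with a total Akt3 antibody. Before lysis, WM115 cells in 0.1% FBS medium were treated for 15 min at 37 °C with compound (final DMSO 0.3%), following a 10 min stimulation with 100 nM insulin. IC50 was obtained by 4-parameter fitting.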

For assay [2], the target named is T2, Akt1 (Homo sapiens, UniProt P31749).
T2 construct: unspecified tag, removed (detagged) (cleaved yes); purchased SignalChem and Proteros (Akt1); Merck Millipore (PDK1) 14-452 (PDK1); none given for Akt1
T2 sequence (P31749 whole entry): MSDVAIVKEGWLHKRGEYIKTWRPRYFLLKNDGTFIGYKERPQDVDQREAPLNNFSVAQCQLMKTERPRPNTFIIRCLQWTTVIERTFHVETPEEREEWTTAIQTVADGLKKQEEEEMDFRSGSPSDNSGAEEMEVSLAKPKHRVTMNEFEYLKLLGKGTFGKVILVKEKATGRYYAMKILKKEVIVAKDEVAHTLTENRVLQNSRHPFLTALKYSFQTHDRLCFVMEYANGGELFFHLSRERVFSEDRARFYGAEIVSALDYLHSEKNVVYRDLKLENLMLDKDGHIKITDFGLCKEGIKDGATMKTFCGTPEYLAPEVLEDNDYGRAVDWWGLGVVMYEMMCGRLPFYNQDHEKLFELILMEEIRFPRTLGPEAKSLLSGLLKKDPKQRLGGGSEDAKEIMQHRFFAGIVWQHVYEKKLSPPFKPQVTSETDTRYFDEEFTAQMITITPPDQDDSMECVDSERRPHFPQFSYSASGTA
The experiment in a line: Akt activation assay (PDK1-mediated activation, LANCE Ultra crosstide TR-FRET), Akt1. It is filed as biochemical. Conditions: read-out: Biological Assay 1 IC50 (nM) Akt1. The method in brief:
(§1)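 TR-FRET read-out (665/615 nm ratio) after Eu-anti-phospho-crosstide antibody, 1 h. Reaction: compound preincubated with Akt isoform, then 5 nM PDK1, lipid vesicles with 0.55 μM PtdIns(3,4,5)P3, 100 μM ATP, 100 nM crosstide, 30 min, EDTA stop. IC50 from 4-parameter equation.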
(TR-FRET usually uses a lanthanide donor and a delayed reading to cut background.)

Assay [3] addresses T3, Akt3 (Homo sapiens, UniProt Q9Y243).
T3 construct: unspecified tag, removed (detagged) (cleaved yes); purchased SignalChem and Proteros (Akt3); Merck Millipore (PDK1) 14-452 (PDK1); none given for Akt3
The experiment in a line: Akt activation assay (PDK1-mediated activation, LANCE Ultra crosstide TR-FRET), Akt3. It is filed as biochemical. Conditions: read-out: Biological Assay 1 IC50 (nM) Akt3. An outline of the steps:
as §1

Assay [4] addresses T4, p-Akt1 in LNCaP cells (Homo sapiens, UniProt P31749).
T4 construct: SureFire assays to detect cellular p-Akt1, p-Akt2 and p-Akt3 levels in WM115 cells (Akt2/3) and LNCaP cells (Akt1); endogenous in cells; host or cells: LNCaP (ECACC 89110211)
The experiment in a line: Phospho-Akt cellular SureFire assay, p-Akt1 in LNCaP cells. As to conditions: read-out: Biological Assay 2 IC50 (nM) Akt1 LNCaP. It is filed as cell-based. The method in brief: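 Phospho-Thr308 Akt1 detected by AlphaScreen SureFire proximity beads in LNCaP lysates after 15 min compound treatment at 37 °C in 0.1% FBS medium, unstimulated, 0.3% DMSO. Cells plated at 5×10^4/well overnight; IC50 from a 4-parameter equation.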

In assay [5] the target is T5, p-Akt2 in WM115 cells (Homo sapiens, UniProt P31751).
T5 construct: SureFire assays to detect cellular p-Akt1, p-Akt2 and p-Akt3 levels in WM115 cells (Akt2/3) and LNCaP cells (Akt1); endogenous in cells; host or cells: WM115 (ECACC 91061232), insulin-stimulated
T5 sequence (P31751 whole entry): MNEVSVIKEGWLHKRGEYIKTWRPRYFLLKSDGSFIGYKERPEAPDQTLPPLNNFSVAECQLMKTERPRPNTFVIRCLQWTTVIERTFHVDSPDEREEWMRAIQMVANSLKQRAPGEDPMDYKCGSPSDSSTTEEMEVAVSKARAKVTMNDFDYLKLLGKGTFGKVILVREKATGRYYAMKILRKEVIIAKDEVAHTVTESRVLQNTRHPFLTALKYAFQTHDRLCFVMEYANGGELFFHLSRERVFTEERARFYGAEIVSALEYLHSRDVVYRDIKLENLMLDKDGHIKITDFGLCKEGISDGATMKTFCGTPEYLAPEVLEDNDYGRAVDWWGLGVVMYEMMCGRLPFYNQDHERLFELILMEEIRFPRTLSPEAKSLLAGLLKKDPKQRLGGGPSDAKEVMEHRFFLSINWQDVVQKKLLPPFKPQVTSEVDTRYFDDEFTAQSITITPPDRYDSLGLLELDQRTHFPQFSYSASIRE
Description: Phospho-Akt cellular SureFire assay, p-Akt2 in WM115 cells. Conditions: insulin stimulated, read-out: Biological Assay 2 IC50 (nM) Akt2 WM115. It is filed as cell-based. The method in brief: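 Readout is a bead-proximity SureFire assay pairing a pThr308 Akt antibody with a total Akt2 antibody, lysate and beads incubated 2 h plus 2 h at room temperature in the dark. Before lysis, serum-starved WM115 cells received 100 nM insulin (10 min), then test compound (15 min, 0.3% DMSO); IC50 by 4-parameter equation.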

For assay [6], the target named is T6, Akt2 (Homo sapiens, UniProt P31751).
T6 construct: unspecified tag, removed (detagged) (cleaved yes); purchased SignalChem and Proteros (Akt2); Merck Millipore (PDK1) 14-452 (PDK1); none given for Akt2
T6 sequence (P31751 whole entry): as above
Description: Akt activation assay (PDK1-mediated activation, LANCE Ultra crosstide TR-FRET), Akt2. Format: biochemical. Conditions: read-out: Biological Assay 1 IC50 (nM) Akt2. An outline of the steps: as §1

Where only a bound is given, the exact number is not on record here.

T3 sequence (Q9Y243 whole entry): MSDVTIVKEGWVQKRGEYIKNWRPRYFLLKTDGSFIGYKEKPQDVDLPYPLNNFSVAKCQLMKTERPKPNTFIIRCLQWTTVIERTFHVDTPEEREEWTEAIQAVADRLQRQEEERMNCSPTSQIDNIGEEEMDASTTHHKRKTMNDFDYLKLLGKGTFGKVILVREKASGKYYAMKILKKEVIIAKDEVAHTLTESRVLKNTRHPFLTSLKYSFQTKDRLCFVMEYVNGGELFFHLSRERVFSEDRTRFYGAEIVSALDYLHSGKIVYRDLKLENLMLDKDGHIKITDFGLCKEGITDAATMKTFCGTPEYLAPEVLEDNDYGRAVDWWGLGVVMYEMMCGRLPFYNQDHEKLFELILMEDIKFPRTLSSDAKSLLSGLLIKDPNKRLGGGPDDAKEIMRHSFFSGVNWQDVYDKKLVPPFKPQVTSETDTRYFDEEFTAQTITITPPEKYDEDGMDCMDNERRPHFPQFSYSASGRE
T1 sequence (Q9Y243 whole entry): as above
T4 sequence (P31749 whole entry): as the sequence (P31749 whole entry) above

In general, IC50 refers to the midpoint of a concentration-inhibition curve. For `CCOC(=O)N(C)[C@H]1CC[C@H](CC(=O)Nc2cc(-c3ccccc3)c(-c3ccc(C4(N)CC4)cc3)nn2)CC1` [Example A94, Ethyl (trans-4-(2-((6-(4-(1-aminocyclopropyl)phenyl)-5-phenylpyridazin-3-yl)amino)-2-oxoethyl)cyclohexyl)(methyl)carbamate], the IC50 in assay [1] is 370 nM; in assay [2] it was above 23000 nM; in assay [3] it was 57 nM; in assay [4], above 30000 nM; in assay [5], 6000 nM; in assay [6], 2200 nM.

On to `CCC(=O)N(C)[C@H]1CC[C@H](CC(=O)Nc2cnc(-c3ccc(C(C)(C)N)cc3)c(-c3ccccc3)c2)CC1` [Example A95, N-(trans-4-(2-((6-(4-(2-aminopropan-2-yl)phenyl)-5-phenylpyridin-3-yl)amino)-2-oxoethyl)cyclohexyl)-N-methylpropionamide], for which the IC50 is 110 nM in assay [1]; above 30000 nM in assay [2]; 54 nM in assay [3]; above 30000 nM in assay [4]; 3100 nM in assay [5]; 3300 nM in assay [6].

As to `CC(=O)N(C)[C@H]1CC[C@H](CC(=O)Nc2cc(-c3ccsc3)c(-c3ccc(C(C)(C)N)cc3)nn2)CC1` [Example A96, N-(6-(4-(2-aminopropan-2-yl)phenyl)-5-(thiophen-3-yl)pyridazin-3-yl)-2-(trans-4-(N-methylacetamido)cyclohexyl)acetamide], the IC50 in assay [1] is 180 nM; in assay [2], above 30000 nM; in assay [3], 92 nM; in assay [4], above 30000 nM; in assay [5], 15000 nM; in assay [6], 10000 nM.

On to `C[C@]1(O)C[C@@](N)(c2ccc(-c3nnc(NC(=O)C[C@H]4CC[C@H](N5CCCCC5=O)CC4)cc3-c3ccccc3)cc2)C1` [Example A98, N-(6-(4-(trans-1-amino-3-hydroxy-3-methylcyclobutyl)phenyl)-5-phenylpyridazin-3-yl)-2-(trans-4-(2-oxopiperidin-1-yl)cyclohexyl)acetamide], for which the IC50 in assay [1] was 5 nM; in assay [2], 2600 nM; in assay [3] it was 4 nM; in assay [4] it was 1900 nM; in assay [5], 320 nM; in assay [6], 53 nM.

For the molecule `CCOC(=O)N(C)[C@H]1CC[C@H](CC(=O)Nc2cnc(-c3ccc(C(C)(C)N)cc3)c(-c3ccccc3)c2)CC1` [Example A99, Ethyl (trans-4-(2-((6-(4-(2-aminopropan-2-yl)phenyl)-5-phenylpyridin-3-yl)amino)-2-oxoethyl)cyclohexyl)(methyl)carbamate], the IC50 in assay [1] is 440 nM; in assay [2], above 27000 nM; in assay [3], 130 nM; in assay [4], above 30000 nM; in assay [5] it was 7800 nM; in assay [6], 3000 nM.

`COC(=O)N(C)[C@H]1CC[C@H](CC(=O)Nc2cc(-c3ccsc3)c(-c3ccc(C4(N)CC4)c(F)c3)nn2)CC1` [Example A100, Methyl (trans-4-(2-((6-(4-(1-aminocyclopropyl)-3-fluorophenyl)-5-(thiophen-3-yl)pyridazin-3-yl)amino)-2-oxoethyl)cyclohexyl)(methyl)carbamate]: the IC50 in assay [1] is 1400 nM; in assay [2], above 30000 nM; in assay [3], 520 nM; in assay [4], above 30000 nM; in assay [5], above 30000 nM; in assay [6], above 30000 nM.

Turning to `CCC(=O)N(C)[C@H]1CC[C@H](CC(=O)Nc2cc(-c3ccsc3)c(-c3ccc(C4(N)CC4)c(F)c3)nn2)CC1` [Example A101, N-(trans-4-(2-((6-(4-(1-aminocyclopropyl)-3-fluorophenyl)-5-(thiophen-3-yl)pyridazin-3-yl)amino)-2-oxoethyl)cyclohexyl)-N-methylpropionamide], the IC50 in assay [1] is 350 nM; in assay [2] it was above 30000 nM; in assay [3], 140 nM; in assay [4], above 30000 nM; in assay [5] it was above 30000 nM; in assay [6], 11000 nM.

On to `CCC(=O)N(C)[C@H]1CC[C@H](CC(=O)Nc2cc(-c3ccccc3)c(-c3ccc(C4(N)CC4)c(F)c3)nn2)CC1` [Example A103, N-(trans-4-(2-((6-(4-(1-aminocyclopropyl)-3-fluorophenyl)-5-phenylpyridazin-3-yl)amino)-2-oxoethyl)cyclohexyl)-N-methylpropionamide], for which the IC50 in assay [1] is 730 nM; in assay [2], above 30000 nM; in assay [3], 110 nM; in assay [4], above 30000 nM; in assay [5] it was above 30000 nM; in assay [6], 2300 nM.

In the case of `COC(=O)N(C)[C@H]1CC[C@H](CC(=O)Nc2cc(-c3ccccc3)c(-c3ccc(C4(N)CC4)c(F)c3)nn2)CC1` [Example A104, Methyl (trans-4-(2-((6-(4-(1-aminocyclopropyl)-3-fluorophenyl)-5-phenylpyridazin-3-yl)amino)-2-oxoethyl)cyclohexyl)(methyl)carbamate], the IC50 in assay [1] was 1000 nM; in assay [2] it was above 30000 nM; in assay [3], 200 nM; in assay [4] it was above 30000 nM; in assay [5], above 30000 nM; in assay [6], 5600 nM.

As for `COC(=O)N(C(C)C)[C@H]1CC[C@H](CC(=O)Nc2cc(-c3ccccc3)c(-c3ccc([C@]4(N)C[C@](C)(O)C4)cc3)cn2)CC1` [Example A105, Methyl (trans-4-(2-((5-(4-(trans-1-amino-3-hydroxy-3-methylcyclobutyl)phenyl)-4-phenylpyridin-2-yl)amino)-2-oxoethyl)cyclohexyl)(isopropyl)carbamate], the IC50 is 300 nM in assay [1]; above 15000 nM in assay [2]; 20 nM in assay [3]; 9000 nM in assay [4]; 5100 nM in assay [5]; 220 nM in assay [6].

Turning to `CCC(=O)N(C(C)C)[C@H]1CC[C@H](CC(=O)Nc2cc(-c3ccccc3)c(-c3ccc([C@]4(N)C[C@](C)(O)C4)cc3)cn2)CC1` [Example A107, N-(trans-4-(2-((5-(4-(trans-1-amino-3-hydroxy-3-methylcyclobutyl)phenyl)-4-phenylpyridin-2-yl)amino)-2-oxoethyl)cyclohexyl)-N-isopropylpropionamide], the IC50 in assay [1] came to 76 nM; in assay [2], 8100 nM; in assay [3], 23 nM; in assay [4] it was 7100 nM; in assay [5] it was 2200 nM; in assay [6] it was 230 nM.

Regarding “N-(6-(4-(trans-1-amino-3-hydroxy-3-methylcyclobutyl)phenyl)-5-phenylpyridin-3-yl)-2-(trans-4-(N-ethylacetamido)cyclohexyl)acetamide [Example 119]”, the half-maximal inhibitory concentration (IC50) in assay [1] was 22 nM; in assay [2] it was 5900 nM; in assay [3] it was 5 nM; in assay [4] it was 2300 nM; in assay [5], 410 nM; in assay [6], 70 nM.
